Data published in article PMC9756784 (Journal of Mass Spectrometry and Advances in the Clinical …, 2022).
Read-outs that look alike come from different tables or passages of the source.

How the values were obtained:
[1] = plasma
[2] = for Relative stability in whole blood and plasma: whole blood versus plasma; for Length of time for which stability is assumed: whole blood
[3] = type: physicochemical; conditions: −80 °C

Structure (SMILES) | Length of time for which stability is assumed ([1]; 4°C) | Length of time for which stability is assumed ([1]; RT (room temperature)) | Length of time for which stability is assumed ([1]; −20°C, W = week) | Length of time for which stability is assumed ([1]; −80°C, M = month) | Relative stability in whole blood and plasma [2] | Length of time for which stability is assumed ([2]; 4°C) | Length of time for which stability is assumed ([2]; RT (room temperature)) | Stock solution stable for up to [3]
Cc1nnc(SCC2=C(C(=O)O)N3C(=O)[C@@H](NC(=O)Cn4cnnn4)[C@H]3SC2)s1 [Cefazolin, cefazolin] | 48h 4 °C | 24h RT | 2W−20 °C | 8M−80 °C | stable in both matrices | 48h 4 °C | 24h RT | –
CO/N=C(\C(=O)N[C@@H]1C(=O)N2C(C(=O)[O-])=C(C[N+]3(C)CCCC3)CS[C@H]12)c1csc(N)n1 [Cefepime, cefepime] | 8h 4 °C | 5h RT | 1W−20 °C | 8M−80 °C | – | 48h 4 °C | 24h RT | –
CO/N=C(\C(=O)N[C@@H]1C(=O)N2C(C(=O)O)=C(COC(C)=O)CS[C@H]12)c1csc(N)n1 [Cefotaxime, cefotaxime] | 48h 4 °C | 8h RT | – | 8M−80 °C | – | 48h 4 °C | 24h RT | –
CC(C)(O/N=C(\C(=O)N[C@@H]1C(=O)N2C(C(=O)[O-])=C(C[n+]3ccccc3)CS[C@H]12)c1csc(N)n1)C(=O)O [Ceftazidime, ceftazidime] | 8h 4 °C | – | – | – | – | – | – | –
Cc1onc(-c2c(F)cccc2Cl)c1C(=O)N[C@@H]1C(=O)N2[C@@H]1SC(C)(C)[C@@H]2C(=O)O [Flucloxacillin, flucloxacillin] | 24h 4 °C | 8h RT | 2W−20 °C | 8M−80 °C | more stable in plasma | 8h 4 °C | 8h RT | –
CC(=O)NC[C@H]1CN(c2ccc(N3CCOCC3)c(F)c2)C(=O)O1 [Linezolid, linezolid] | 48h 4 °C | 24h RT | 2W−20 °C | 8M−80 °C | stable in both matrices | 48h 4 °C | 24h RT | 20 months
C[C@@H](O)[C@H]1C(=O)N2C(C(=O)O)=C(S[C@@H]3CN[C@H](C(=O)N(C)C)C3)[C@H](C)[C@H]12 [Meropenem, meropenem] | 24h 4 °C | 8h RT | 1W−20 °C | 8M−80 °C | more stable in whole blood than in plasma | 48h 4 °C | 8h RT | –
CCN1CCN(C(=O)N[C@@H](C(=O)N[C@@H]2C(=O)N3[C@@H]2SC(C)(C)[C@@H]3C(=O)O)c2ccccc2)C(=O)C1=O [Piperacillin, piperacillin] | 24h 4 °C | 5h RT | 1W−20 °C | – | – | 48h 4 °C | 24h RT | –
C[C@]1(Cn2ccnn2)[C@H](C(=O)O)N2C(=O)C[C@H]2S1(=O)=O [Tazobactam, tazobactam] | 24h 4 °C | 8h RT | 1W−20 °C | – | more stable in whole blood than in plasma | 48h 4 °C | 24h RT | –
